Data taken from ChEMBL document CHEMBL1145670, “Additional New Maytansinoids from Trewia nudiflora: 10-Epitrewiasine and Nortrewiasine” (1983).
≈ marks a conversion by molar mass, not a printed value.

Assays:
Type in all cases: functional
KB = test: Cytotoxicity against human KB cells; details: for EC50: Homo sapiens, KB, read-out: ED50 (the source's name)
P388 [1] = test: In vivo antileukemic activity against mouse P388 cells at 16 mg/kg
P388 [2] = test: In vivo antileukemic activity against mouse P388 cells at 8 mg/kg
P388 [3] = test: In vivo antileukemic activity against mouse P388 cells at 4 mg/kg
P388 [4] = test: In vivo antileukemic activity against mouse P388 cells at 32 mg/kg

| SMILES | ED50 (KB) | T/C (P388 [1]) | T/C (P388 [2]) | EC50 (KB) | also measured |
| --- | --- | --- | --- | --- | --- |
| COc1cc2cc(c1Cl)N(C)C(=O)C[C@H](OC(=O)[C@H](C)N(C)C(=O)C(C)C)[C@]1(C)O[C@H]1[C@H](C)[C@@H]1C[C@@](O)(NC(=O)O1)[C@H](OC)/C=C/C=C(\C)C2OC (stereo partly drawn) [TREWIASINE] | 2 ×10⁻⁴ ug/ml | 154% | – | – | – |
| COc1cc2cc(c1Cl)N1CC(O)C(C)(O)C(=O)NC(C)C(=O)O[C@@H](CC1=O)[C@]1(C)O[C@H]1[C@H](C)[C@@H]1C[C@@](O)(NC(=O)O1)[C@H](OC)/C=C/C=C(\C)C2OC (stereo partly drawn) [TRENUDINE] | 6.4 ×10⁻⁴ ug/ml | – | 146% | – | – |
| COc1cc2cc(c1Cl)N1CC(=O)C(C)(O)C(=O)N(C)C(C)C(=O)O[C@@H](CC1=O)[C@]1(C)O[C@H]1[C@H](C)[C@@H]1C[C@@](O)(NC(=O)O1)[C@H](OC)/C=C/C=C(\C)C2OC (stereo partly drawn) | – | – | – | < 0.01 µg/mL | T/C (P388 [3]): 153% |
| C=C(C)C(=O)N(C)[C@@H](C)C(=O)O[C@H]1CC(=O)N(C)c2cc(cc(OC)c2Cl)C(OC)/C(C)=C/C=C/[C@@H](OC)[C@@]2(O)C[C@H](OC(=O)N2)[C@@H](C)[C@@H]2O[C@@]12C (stereo partly drawn) [DEHYDROTREWIASINE] | – | – | 172% | < 0.01 µg/mL | – |
| COc1cc2cc(c1Cl)NC(=O)C[C@H](OC(=O)[C@H](C)N(C)C(=O)C(C)C)[C@]1(C)O[C@H]1[C@H](C)[C@@H]1C[C@@](O)(NC(=O)O1)[C@H](OC)/C=C/C=C(\C)C2OC (stereo partly drawn) [NORTREWIASINE] | <1 ×10⁻⁴ ug/ml | 155% | – | – | – |
| COc1cc2cc(c1Cl)N1CCC(C)(O)C(=O)NC(C)C(=O)O[C@@H](CC1=O)[C@]1(C)O[C@H]1[C@H](C)[C@@H]1C[C@@](O)(NC(=O)O1)[C@H](OC)/C=C/C=C(\C)C2OC (stereo partly drawn) [TREFLORINE] | 2.7 ×10⁻⁴ ug/ml | 157% | – | – | – |
| COc1cc2cc(c1Cl)N(C)C(=O)C[C@H](OC(=O)[C@H](C)N(C)C(=O)C(C)C)[C@]1(C)O[C@H]1[C@H](C)[C@@H]1C[C@@](O)(NC(=O)O1)[C@@H](OC)/C=C/C=C(\C)C2OC (stereo partly drawn) | – | – | – | < 0.001 µg/mL | T/C (P388 [4]): 131% |
| COc1cc2cc(c1Cl)N(C)C(=O)C[C@H](OC(=O)[C@H](C)NC(=O)C(C)C)[C@]1(C)O[C@H]1[C@H](C)[C@@H]1C[C@@](O)(NC(=O)O1)[C@H](OC)/C=C/C=C(\C)C2OC (stereo partly drawn) [DEMETHYLTREWIASINE] | – | – | 159% | 0.049 µg/mL (≈ 0.0666 µM) | – |
| COc1cc2cc(c1Cl)N(C)C(=O)C[C@H](OC(=O)[C@H](C)N(C)C(=O)C(C)C)[C@]1(C)O[C@H]1[C@H](C)[C@@H]1C[C@@](O)(NC(=O)O1)[C@H](OC)/C=C/C=C(\C)C2O (stereo partly drawn) [COLUBRINOL] | – | – | – | < 0.001 µg/mL | T/C (P388 [4]): 159% |
